In ChEMBL document CHEMBL5380862, “Unsymmetrical Phosphodiesters as GPR84 Antagonists with High Blood Exposure for the Treatment of Lung Inflammation” (J Med Chem, 2023):
One block for each compound: values may come before it. The source made the active and inactive calls. The calls are words filed in the database; no cut-off is given here.

Assays:
[1] = biological target: G-protein coupled receptor 84 (Homo sapiens, UniProt Q9NQS5); assay: Antagonist activity at human GPR84 expressed in HEK293 cells co-expressing Galpha16 assessed as inhibition of 6-OAU induced calcium response incubated for 10 mins by calcium mobilization assay; assay type: functional, cell-based
Mus musculus [2] = assay: (§1) Protection against C57BL/6 mouse model of LPS-induced acute […] injury assessed as amelioration of pulmonary congestion at 100 mg/kg, po pre-treated with compound for 30 mins followed by LPS-stimulation for 12 hrs and measured 24 hrs post LPS stimulation by H&E staining based analysis; assay type: functional, organism-based; conditions: time 24.5 hrs
Mus musculus [3] = assay: as §1, with “reduction in CD45positive CD11bpositive myeloid cells in BALF” for “amelioration of pulmonary congestion”, “flow cytometric” for “H&E staining based”; assay type: functional, organism-based; conditions: time 24.5 hrs
Mus musculus [4] = assay: as §1, with “reduction in CD45positive CD11bpositive Ly6Gpositive neutrophils in BALF” for “amelioration of pulmonary congestion”, “flow cytometric” for “H&E staining based”; assay type: functional, organism-based; conditions: time 24.5 hrs
Mus musculus [5] = assay: Protection against C57BL/6 mouse model of LPS-induced acute […] injury assessed as reduction in CD45positive immune cells in BALF at 100 mg/kg, po pre-treated with compound for 30 mins followed by LPS-stimulation for 12 hrs and measured 24 hrs post LPS stimulation by flow cytometric analysis; assay type: functional, organism-based; conditions: time 24.5 hrs
Mus musculus [6] = assay: Protection against C57BL/6 mouse model of LPS-induced acute […] injury assessed as amelioration of […] edema at 100 mg/kg, po pre-treated with compound for 30 mins followed by LPS-stimulation for 12 hrs and measured 24 hrs post LPS stimulation by H&E staining based analysis; assay type: functional, organism-based; conditions: time 24.5 hrs
Mus musculus [7] = assay: Protection against C57BL/6 mouse model of LPS-induced acute […] injury assessed as reduction in total cells in BALF at 100 mg/kg, po pre-treated with compound for 30 mins followed by LPS-stimulation for 12 hrs and measured 24 hrs post LPS stimulation by flow cytometric analysis; assay type: functional, organism-based; conditions: time 24.5 hrs
Mus musculus [8] = assay: Protection against C57BL/6 mouse model of LPS-induced acute […] injury assessed as amelioration of thickening of alveolar wall at 100 mg/kg, po pre-treated with compound for 30 mins followed by LPS-stimulation for 12 hrs and measured 24 hrs post LPS stimulation by H&E staining based analysis; assay type: functional, organism-based; conditions: time 24.5 hrs

G-protein coupled receptor 84, sequence (Q9NQS5 whole entry): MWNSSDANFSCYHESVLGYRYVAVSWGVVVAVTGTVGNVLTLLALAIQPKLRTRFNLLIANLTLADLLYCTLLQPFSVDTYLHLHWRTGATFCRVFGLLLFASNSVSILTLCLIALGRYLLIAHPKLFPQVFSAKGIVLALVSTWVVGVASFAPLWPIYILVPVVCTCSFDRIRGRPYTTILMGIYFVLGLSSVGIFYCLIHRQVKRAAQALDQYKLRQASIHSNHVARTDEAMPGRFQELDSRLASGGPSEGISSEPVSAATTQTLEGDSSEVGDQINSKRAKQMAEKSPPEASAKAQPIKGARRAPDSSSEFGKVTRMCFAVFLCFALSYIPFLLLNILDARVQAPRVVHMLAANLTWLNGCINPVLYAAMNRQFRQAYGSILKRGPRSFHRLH

IC50 [1]: 29600 nM
SMILES: CC1(C)[C@@H]2CC[C@@](C)(C2)[C@@H]1OP(=O)(O)O[C@@H]1C(C)(C)[C@@H]2CC[C@@]1(C)C2

SMILES: COc1cccc2c1Sc1ccccc1C=C2OP(=O)(O)O[C@@H]1C[C@H](C)CC[C@H]1C(C)C
IC50 [1]: 68 nM

SMILES: COc1cccc2c1Sc1ccccc1C=C2OP(=O)(O)Oc1ccc2ccccc2c1
IC50 [1]: 609 nM

SMILES: COc1cccc2c1Sc1ccccc1C=C2OP(=O)(O)Oc1cc(C)ccc1C(C)C
IC50 [1]: 658 nM

SMILES: COc1cccc2c1Sc1ccccc1C=C2OP(=O)(O)OC1CCOC1 (stereo unspecified)
IC50 [1]: 3990 nM

SMILES: COc1cccc2c1Sc1ccccc1C=C2OP(=O)(O)OC
IC50 [1]: 2830 nM

SMILES: COc1cccc2c1Sc1ccccc1C=C2OP(=O)(O)OC1CC1
IC50 [1]: 39500 nM

SMILES: COc1cccc2c1Sc1ccccc1C=C2OP(=O)(O)OC12CC3CC(C)(CC(C)(C3)C1)C2
IC50 [1]: 126 nM

SMILES: COc1cccc2c1Sc1ccccc1C=C2OP(=O)(O)Oc1cc(C(C)C)ccc1C
IC50 [1]: 196 nM

SMILES: CCOCCOCCOP(=O)(O)OC1=Cc2ccccc2Sc2c(OC)cccc21
IC50 [1]: 21800 nM

SMILES: CC/C=C\CCCCOP(=O)(O)OC1=Cc2ccccc2Sc2c(OC)cccc21
IC50 [1]: 517 nM

SMILES: CC1(C)[C@@H]2CC[C@@](C)(C2)[C@@H]1OP(=O)(O)OC1=Cc2ccccc2Oc2ccccc21
IC50 [1]: 711 nM

SMILES: COc1cccc2c1Sc1ccccc1C=C2OP(=O)(O)O[C@H]1C[C@@H](C)CC[C@@H]1C(C)C
IC50 [1]: 91 nM

SMILES: COc1cccc2c1Sc1ccccc1C=C2OP(=O)(O)OC1CCC(C)CC1 (stereo unspecified)
IC50 [1]: 4010 nM

SMILES: CCCCCCOP(=O)(O)OC1=Cc2ccccc2Sc2c(OC)cccc21
IC50 [1]: 325 nM

SMILES: CC1(C)[C@@H]2CC[C@@](C)(C2)[C@@H]1OP(=O)(O)OC1=Cc2ccccc2Sc2ccccc21
IC50 [1]: 166 nM

SMILES: CCCCCCCCCOP(=O)(O)OC1=Cc2ccccc2Sc2c(OC)cccc21
IC50 [1]: 194 nM

SMILES: COc1cccc2c1Sc1ccccc1C=C2OP(=O)(O)OC1C(C)(C)CCCC1(C)C
IC50 [1]: 110 nM

SMILES: CC1(C)[C@@H]2CC[C@@](C)(C2)[C@@H]1OP(=O)(O)OC1=Cc2ccccc2Sc2c(OC(F)(F)F)cccc21
IC50 [1]: 12 nM

SMILES: COc1cccc2c1Sc1ccccc1C=C2OP(=O)(O)OC1CCCCC1C (stereo unspecified)
IC50 [1]: 1730 nM

SMILES: CCOC(=O)[C@H](CS)NC(C)=O
Activity (Mus musculus [2]): Active
Activity (Mus musculus [3]): Active
Activity (Mus musculus [4]): Active
Activity (Mus musculus [5]): Active
Activity (Mus musculus [6]): Active
Activity (Mus musculus [7]): Active
Activity (Mus musculus [8]): Active

SMILES: COc1cccc2c1Sc1ccccc1C=C2OP(=O)(O)OC12CC3CC(CC(C3)C1)C2
IC50 [1]: 340 nM

SMILES: CC1(C)[C@@H]2CC[C@@](C)(C2)[C@@H]1OP(=O)(O)OC1=Cc2c(F)cccc2Sc2ccccc21
IC50 [1]: 554 nM

SMILES: CCCCCCCCP(=O)(O)OC1=Cc2ccccc2Sc2c(OC)cccc21
IC50 [1]: 219 nM

SMILES: COc1cccc2c1Sc1ccccc1C=C2OP(=O)(O)Oc1cccc2ccccc12
IC50 [1]: 130 nM
